From patent publication US20100028259A1, “USE OF ORGANIC CATION TRANSPORTERS FOR CANCER DIAGNOSIS AND THERAPY” (The Regents of the University of California, priority 2006, published 2010)
Where two headings read alike, the source gives them in different places.

Experiments:
[1] = test system: HEK-hOCT2 cells; test: MTT drug sensitivity assay in HEK-hOCT2 cells; assay type: cell-based, human
Protocol: (§1) Cytotoxicity of the platinum-based compounds was measured by MTT (thiazolyl blue tetrazolium bromide) assay. Cells were seeded in 100 μl of the culture medium without any antibiotics in 96-well plates at a predetermined cell density. For HEK 293 cells, poly-D-lysine coated plates were used. […] For the OCT inhibitor studies, the inhibitors (i.e., disopyramide or cimetidine) were added to the medium at a specified concentration immediately before the addition of the platinum-based compounds. After incubation for a specified time period, the drug-containing medium was replaced with fresh, drug-free medium and the incubation was continued for a total of 72 hours (start from the addition of platinum-based compounds). Then, the MTT assay was performed similarly as described in Alley et al., Cancer Res., 48:589-601 (1988). […] The maximal cell growth was the cell growth in the medium without any platinum-based compounds; C is the concentration of the platinum-based compound, and γ is the slope factor.
Briefly, the cells were seeded in 96-well plates at a density of 5,000 cells/well for the transfected MDCK cells or 12,000 cells/well for the transfected HEK 293 cells. The platinum-based drugs were added on the following day. After the specified time periods of drug exposure, the drug-containing medium was replaced with fresh, drug-free medium, and the incubation was continued for a total of 72 hours (start from the time when the drug was added). After incubation, the cell growth was determined by an MTT assay. Data are expressed as mean±SD from 3 to 6 independent experiments with each performed in quadruplicate. The resistance factor (RF) was defined as the ratio of the mean IC50 value in the MOCK cells to that in the OCT-transfected cells.

[2] = test system: LS180; test: MTT drug sensitivity, colon cancer cell line LS180; assay type: cell-based, human
Protocol: as §1
(§2) The cell seeding density was 6,000-, 8,000-, 6,000-, 15,000-12,000- and 4,000 cells/well for HCT116, HT29, RKO, SW620, LS180, and DLD cells, respectively. When cimetidine (1.5 mM) was used, it was added to the wells immediately before the addition of the platinum-based drugs. The resistance factor (RF) was defined as the ratio of the mean IC50 value in the presence to that in the absence of cimetidine. Data are expressed as mean±SD from six measurements, and each measurement was performed in quadruplicate.

[3] = test system: DLD; test: MTT drug sensitivity, colon cancer cell line DLD; assay type: cell-based, human
Protocol: as §1, §2

[4] = test system: MDCK-MOCK cells; test: Platinum-DNA adduct formation in MDCK-MOCK cells; assay type: cell-based, canine
Protocol: (§3) After incubation at 37° C. and 5% CO2 for 2 hours, the cells were washed with ice-cold PBS three times and harvested. The genomic DNA was isolated from the cells and the platinum content associated with DNA was determined by ICP-MS and normalized for DNA content. Data are expressed as mean±SD from a typical experiment performed in triplicate. Two independent experiments were conducted and similar results were obtained.
After incubation, the cells were washed with ice-cold PBS three times and harvested. Genomic DNA was isolated from the harvested cells and the DNA-associated platinum content was determined by ICP-MS and normalized for the DNA content. Data are expressed as mean±SD of three measurements.
(§4) The platinum content associated with genomic DNA was determined as described in Samimi et al., Clin. Cancer Res., 10:4661-4669 (2004) with some modifications. Briefly, the cells were grown in 100 mm×20 mm dishes in the culture medium without any antibiotics to over 90% confluence. For HEK 293 cells, poly-D-lysine coated dishes were used. Then, the cells were incubated in the culture medium containing the specified concentrations of the platinum-based compounds at 37° C. in 5% CO2 for 2 hours (or 25 min as specified). In some experiments, phosphate buffer (PB: 1.06 mM KH2PO4, 2.97 mM Na2HPO4, pH 7.4) containing 155 mM NaCl (PB—Cl buffer) or 103 mM Na2SO4 (PB—SO4 buffer) was used instead of the culture medium as specified. For the OCT inhibitor study, the incubation medium (buffer) also contained disopyramide or cimetidine). If PB—Cl or PB—SO4 buffer was used, the cells were washed with the same buffer once before drug incubation. After incubation, the cells were washed with ice-cold PBS, scraped, and pelleted. Genomic DNA was isolated from the cell pellets using the Wizard® Genomic DNA Purification Kit (Promega, Madison, Wis.) following the manufacturer's instructions. Briefly, the cells were lysed with Nuclei Lysis Solution. After RNA digestion and protein precipitation, the lysates were centrifuged and the resulting supernatant was aliquoted. The genomic DNA prepared from two different aliquots of the supernatant was used for platinum and DNA content determination, respectively. For the determination of platinum, the DNA samples were treated with 70% nitric acid at 65° C. and diluted in the same way as described above. The platinum content was analyzed using ICP-MS and the DNA content was measured by absorption spectroscopy.

[5] = test system: HEK-hOCT2 cells; test: Platinum-DNA adduct formation in HEK-hOCT2 cells; assay type: cell-based, human; conditions: 2-hr exposure
Protocol: as §3, §4

O=C1[O][Pt]2([NH][C@@H]3CCCC[C@H]3[NH]2)[O]C1=O [oxaliplatin] showed an IC50 ([1]; co-incubation with cimetidine 1.5 mM, read-out: IC50 in HEK-hOCT2, cimetidine-treated) of 2810 ± 1630 nM, an IC50 ([1]; drug exposure 7 hour, read-out: IC50 HEK-hOCT2) of 39 ± 25 nM and an IC50 ([1]; drug exposure 24 hour, read-out: IC50 HEK-hOCT2) of 20 ± 1 nM. For the same compound, the IC50 ([1]; drug exposure 72 hour, read-out: IC50 HEK-hOCT2) was 19 ± 4 nM, the IC50 ([2]; LS180, absence of cimetidine, read-out: IC50 Control) was 1300 ± 410 nM and the IC50 ([2]; LS180, cimetidine 1.5 mM, read-out: IC50 Cimetidine-treated) was 8390 ± 2770 nM. For the same compound, the IC50 ([3]; absence of cimetidine, read-out: IC50 Control) was 10600 ± 5990 nM, the IC50 ([3]; cimetidine 1.5 mM, read-out: IC50 Cimetidine-treated) was 71300 ± 12900 nM and the “DNA-associated platinum level in MDCK-MOCK” value ([4]; 20 μM, PB—Cl, 25 min) was 0.0034±0.00087 pmol/μg DNA. The “rb in MDCK-MOCK” value ([4]; 20 μM, PB—Cl, 25 min) was 1.12±0.29×10^−6, the “Pt-DNA adduct level in MDCK-MOCK” value ([4]; 20 μM, PB—SO4, 25 min) was 0.0032±0.00042 pmol/μg DNA and the “rb in MDCK-MOCK” value ([4]; 20 μM, PB—SO4, 25 min) was 1.05±0.14×10^−6. For the same compound, the “platinum-DNA adduct level in MDCK-MOCK” value ([4]; 2-hr exposure, oxaliplatin 10 μM, culture medium) was 0.0110±0.0010 pmol/μg DNA, the “effect of disopyramide on platinum-DNA adduct formation in MDCK-MOCK” value ([4]; disopyramide 150 μM) was “no effect” and the “platinum-DNA adduct level in HEK-hOCT2, cimetidine” value ([5]; cimetidine 1.5 mM) was 0.00216±0.00031 pmol/μg DNA. The “rb in HEK-hOCT2, cimetidine” value ([5]; cimetidine 1.5 mM) was 7.13±1.02×10^−7, the “platinum-DNA adduct level in HEK-hOCT2” value ([5]; oxaliplatin 0.6 μM) was 0.0284±0.0020 pmol/μg DNA and the “rb in HEK-hOCT2” value ([5]; oxaliplatin 0.6 μM) was 9.37±0.66×10^−6.
